The structures appear in SMILES notation.

Common to all, as to type: ADME
The nature of series [1]: Drug uptake in C57BL/6J mouse neuronal cytosol at 100 uM after 1 min by confocal microscopy co-treated with 20 uM 2-TRLG.
A short description of series [2]: Drug uptake in C57BL/6J mouse neuronal cytosol at 20 uM after 1 min by confocal microscopy co-treated with 100 uM 2-NBDLG.
Series [3] can be described thus: Drug uptake in C57BL/6J mouse neuronal cytosol at 20 uM after 1 min by confocal microscopy co-treated with 100 uM 2-NBDG.

For the compound `O=[N+]([O-])c1ccc(N[C@H]2C(O)O[C@H](CO)[C@@H](O)[C@@H]2O)c2nonc12` (stereo partly specified), the Drug uptake entry in series [1] is “Active”.

Consider `O=S(=O)([O-])c1cc(S(=O)(=O)N[C@@H]2C(O)O[C@@H](CO)[C@H](O)[C@H]2O)ccc1C1=c2cc3c4c(c2Oc2c1cc1c5c2CCCN5CCC1)CCC[N+]=4CCC3` (stereo partly specified), for which the Drug uptake result in series [2] is given as “Active”; in series [3], “Not Active”.

Take `O=S(=O)([O-])c1ccc(C2=c3cc4c5c(c3Oc3c2cc2c6c3CCCN6CCC2)CCC[N+]=5CCC4)c(S(=O)(=O)N[C@@H]2C(O)O[C@@H](CO)[C@H](O)[C@H]2O)c1` (stereo partly specified): the results for the Drug uptake entry in series [2] and in series [3] were “Active” and “Not Active”, respectively.

Regarding `O=[N+]([O-])c1ccc(N[C@@H]2C(O)O[C@@H](CO)[C@H](O)[C@H]2O)c2nonc12` (stereo partly specified), in series [1], the Drug uptake entry is “Not Active”.

The values are drawn from ChEMBL document CHEMBL1795315, “Syntheses of 2-NBDG analogues for monitoring stereoselective uptake of D-glucose” (Bioorg Med Chem Lett, 2011).
